# Measurements taken from US12105070B2, “LC-MS/MS method for measurement of Aloesin in rat plasma” (HAINAN MEDICAL UNIVERSITY, priority 2020, dated 2024).
# Columns and labels:
# [1] = Stability of aloesin in plasma samples (LC-MS/MS quality control samples); assay type: in vitro ADME, rat
# Procedure: Prepare 3 concentrations of aloesin quality control samples (500 ng·mL^−1, 50 ng·mL^−1, 3 ng·mL^−1) with blank plasma, and examine the stability under the following conditions.
# (1) After the sample is processed, it is placed in the autosampler for 8 hours, and then the sample is injected for analysis;
# (2) The sample is processed after 3 freeze-thaw cycles, and the sample is injected for analysis;
# (3) The sample is placed at room temperature for 4 hours and then comes out, and the sample is injected for analysis;
# (4) The sample is processed after the sample is stored at −20° C. for 15 days, and then the sample is injected for analysis.
# The stability inspection is qualified.
# [2] = toxicological studies, no details given; cited from earlier work
smiles,measurement,setting,value
CC(=O)Cc1cc(=O)c2c(C)cc(O)c([C@@H]3O[C@H](CO)[C@@H](O)[C@H](O)[C@H]3O)c2o1 [aloesin],Accuracy,"[1]; 3 ng·ml^-1 in plasma, 3 freeze-thaw cycles",109.60%
same,Accuracy,"[1]; 3 ng·ml^-1 in plasma, processed sample in autosampler 8 h",109.20%
same,Accuracy,"[1]; 3 ng·ml^-1 in plasma, room temperature for 4 hours",106.18%
same,Accuracy,"[1]; 3 ng·ml^-1 in plasma, stored at -20° C. for 15 days",108.00%
same,Accuracy,"[1]; 50 ng·ml^-1 in plasma, 3 freeze-thaw cycles",109.40%
same,Accuracy,"[1]; 50 ng·ml^-1 in plasma, processed sample in autosampler 8 h",108.20%
same,Accuracy,"[1]; 50 ng·ml^-1 in plasma, room temperature for 4 hours",105.20%
same,Accuracy,"[1]; 50 ng·ml^-1 in plasma, stored at -20° C. for 15 days",100.14%
same,Accuracy,"[1]; 500 ng·ml^-1 in plasma, 3 freeze-thaw cycles",105.20%
same,Accuracy,"[1]; 500 ng·ml^-1 in plasma, processed sample in autosampler 8 h",102.60%
same,Accuracy,"[1]; 500 ng·ml^-1 in plasma, room temperature for 4 hours",101.80%
same,Accuracy,"[1]; 500 ng·ml^-1 in plasma, stored at -20° C. for 15 days",94.66%
same,toxic side effects,[2],basically no toxic side effects
